Reference: ChEMBL document CHEMBL5230122, “Natural products and other inhibitors of F1FO ATP synthase” (Eur J Med Chem, 2020)
Square brackets hold non-standard residues; d marks the D form. Peptide text beside a SMILES is read from it. * marks the point of attachment. X3 = CC(C)C[C@@H](CN1CCC[N+]2=C1CCC2)N*; X4 = CC(C)C[C@@H](C[N+]1=C2CCCN2CCC1)N*; Pip = O=C(O)[C@@H]1CCCCN1; Iva = CC[C@](C)(N)C(=O)O; Aib = CC(C)(N)C(=O)O; βAla = NCCC(=O)O

Tests used:
MDA-MB-231 = assay: Antiproliferative activity against human MDA-MB-231 cells assessed as reduction in cell viability incubated for 48 hrs by MTT assay; assay type: functional, cell-based; conditions: MDA-MB-231, 48 h
Bos taurus = organism: Bos taurus; assay: Inhibition of bovine F0F1-ATPase at 50 uM
SNU-398 = assay: Anticancer activity against human SNU-398 cells expressing high level of SALL4 assessed as reduction in cell viability incubated for 72 hrs by CellTiter-Glo assay; assay type: functional, cell-based; conditions: SNU-398, 72 h
NCI-H292 = assay: Anticancer activity against human NCI-H292 cells assessed as reduction in cell proliferation incubated for 48 hrs by Calcein AM and Pluronic F-127 staining based fluorescence plate reader analysis; assay type: functional; conditions: NCI-H292, 48 h
SW480 = assay: Antiproliferative activity against human SW480 cells assessed as reduction in cell viability incubated for 48 hrs by MTT assay; assay type: functional, cell-based; conditions: SW480, 48 h
A549 = assay: Antiproliferative activity against human A549 cells assessed as reduction in cell viability incubated for 48 hrs by MTT assay; assay type: functional, cell-based; conditions: A549, 48 h
SMMC-7721 = assay: Antiproliferative activity against human SMMC-7721 cells assessed as reduction in cell viability incubated for 48 hrs by MTT assay; assay type: functional, cell-based; conditions: SMMC-7721, 48 h
HL-60 = assay: Antiproliferative activity against human HL-60 cells assessed as reduction in cell viability incubated for 48 hrs by MTT assay; assay type: functional, cell-based; conditions: HL-60, 48 h
MCF7 = assay: Antiproliferative activity against human MCF7 cells assessed as reduction in cell viability incubated for 48 hrs by MTT assay; assay type: functional, cell-based; conditions: MCF7, 48 h

SMILES: CC[C@@H]1O[C@@](C)(/C=C/C=C/C=C/c2cc(OC)c(C)c(=O)o2)[C@@H](O)[C@]1(C)O
- IC50 (MDA-MB-231): > 50 µM

SMILES: COc1cc(=O)oc(/C=C/C=C/C=C/[C@@H]2O[C@]3(C)[C@@H](OC(C)=O)[C@](C)(O[C@@H]3[C@@H](C)O)[C@H]2O)c1C
- IC50 (MDA-MB-231): 0.08 µM

SMILES: COc1ccc(/C=C/c2cc(OC)cc(OCCCC[P+](c3ccccc3)(c3ccccc3)c3ccccc3)c2)cc1
- inhibition (Bos taurus): > 40%

SMILES: CC[C@](C)(NC(=O)[C@H](CC(C)C)NC(=O)[C@H](C)NC(=O)C(C)(C)NC(=O)[C@@H]1CCCCN1C(=O)C(C)(C)NC(=O)C(C)(C)NC(=O)CNC(=O)CCNC(=O)[C@H](CC(C)C)NC(=O)C(C)(C)NC(=O)[C@](C)(CC)NC(=O)[C@@H]1CCCCN1C(=O)C(C)(C)NC(=O)[C@@H]1CCCCN1C(C)=O)C(=O)N[C@@H](CC(C)C)C[N+]1=C2CCCN2CCC1 [EFRAPEPTIN G] (Ac-[Pip][Aib][Pip][Iva][Aib]L[βAla]G[Aib][Aib][Pip][Aib]AL[Iva]-X4)
- IC50 (SNU-398): 0.009 µM

SMILES: CC[C@H]1O[C@@]2(C)[C@H](O)[C@@]1(C)O[C@@H](/C=C/C=C/C=C/c1oc(=O)cc(OC)c1C)[C@@H]2O
- IC50 (MDA-MB-231): 8.79 µM

SMILES: COC[C@@H](C[C@H]1O[C@@](O)([C@H](O)[C@@H]2C[C@H](OC)[C@@H](O)CC/C=C(C)/C=C/[C@@H](O[C@@H]3O[C@@H](C)[C@H](OC)[C@@H](O)[C@@H]3O)[C@H](C)/C=C(C)/C=C(C)/C=C(/C)C(=O)O2)[C@H](C)[C@@H](O)[C@H]1C)O[C@H]1C[C@](C)(O)[C@@H](O[C@H]2C[C@@H](OC)[C@H](O)[C@@H](C)O2)[C@H](C)O1
- IC50 (NCI-H292): 0.15 µM

SMILES: CC(=O)Oc1ccc(/C=C/c2cc(OCCCC[P+](c3ccccc3)(c3ccccc3)c3ccccc3)cc(OC(C)=O)c2)cc1
- inhibition (Bos taurus): > 40%

SMILES: CC[C@H]1O[C@@]2(C)[C@H](OC(C)=O)[C@@]1(C)O[C@@H](C(O)/C=C/C(O)/C=C/c1oc(=O)cc(OC)c1C)[C@@H]2O (stereo partly specified)
- IC50 (SW480): 14.4 µM
- IC50 (A549): > 40 µM
- IC50 (SMMC-7721): 18.3 µM
- IC50 (HL-60): > 40 µM
- IC50 (MCF7): > 40 µM

SMILES: COC[C@H](O)C[C@H]1O[C@@](O)(C[C@@H]2C[C@H](OC)CCC/C=C(C)/C=C/[C@@H](O[C@@H]3O[C@@H](C)[C@@H](OC)[C@@H](O)[C@@H]3O)[C@H](C)/C=C(C)/C=C(C)/C=C(\C)C(=O)O2)[C@H](C)[C@@H](O)[C@H]1C
- IC50 (NCI-H292): > 1 µM

SMILES: COc1cc(=O)oc(/C=C/C=C/C=C/[C@]2(C)O[C@]3(C)[C@@H](O)[C@](C)(O[C@@H]3C)[C@H]2O)c1C
- IC50 (MDA-MB-231): > 5.43 µM

SMILES: COC[C@@H](C[C@H]1O[C@@](O)(C[C@@H]2C[C@H](OC)CCC/C=C(C)/C=C/[C@@H](O[C@@H]3O[C@@H](C)[C@@H](OC)[C@@H](O)[C@@H]3O)[C@H](C)/C=C(C)/C=C(C)/C=C(\C)C(=O)O2)[C@H](C)[C@@H](O)[C@H]1C)O[C@H]1C[C@](C)(O)[C@@H](O[C@H]2C[C@@H](OC)[C@H](O)[C@@H](C)O2)[C@H](C)O1
- IC50 (NCI-H292): < 0.1 µM

SMILES: COc1cc(/C=C/C=C/C=C/[C@]2(C)O[C@]3(C)[C@@H](O)[C@](C)(O[C@@H]3C)[C@H]2O)oc(=O)c1
- IC50 (SW480): > 40 µM
- IC50 (A549): > 40 µM
- IC50 (SMMC-7721): > 40 µM
- IC50 (HL-60): > 40 µM
- IC50 (MCF7): > 40 µM

SMILES: CC[C@H]1O[C@@]2(C)[C@H](OC(C)=O)[C@@]1(C)O[C@@H](/C=C/C=C/C=C/c1cc(OC)cc(=O)o1)[C@@H]2O
- IC50 (SW480): > 40 µM
- IC50 (A549): > 40 µM
- IC50 (SMMC-7721): > 40 µM
- IC50 (HL-60): > 40 µM
- IC50 (MCF7): > 40 µM

SMILES: CC[C@H]1O[C@@]2(C)[C@H](OC(C)=O)[C@@]1(C)O[C@@H](C(O)C(/C=C/C=C/c1oc(=O)cc(OC)c1C)OC)[C@@H]2O (stereo partly specified)
- IC50 (SW480): > 40 µM
- IC50 (A549): > 40 µM
- IC50 (SMMC-7721): > 40 µM
- IC50 (HL-60): > 40 µM
- IC50 (MCF7): > 40 µM

SMILES: COC[C@@H](C[C@H]1O[C@@](O)([C@H](O)[C@@H]2C[C@H](OC)CCC/C=C(C)/C=C/[C@@H](O[C@@H]3O[C@@H](C)[C@H](OC)[C@@H](O)[C@@H]3O)[C@H](C)/C=C(C)/C=C(C)/C=C(\C)C(=O)O2)[C@H](C)[C@@H](O)[C@H]1C)O[C@H]1C[C@](C)(O)[C@@H](O[C@H]2C[C@@H](OC)[C@H](O)[C@@H](C)O2)[C@H](C)O1
- IC50 (NCI-H292): 0.007 µM

SMILES: CC[C@](C)(NC(=O)[C@H](CC(C)C)NC(=O)[C@H](C)NC(=O)C(C)(C)NC(=O)[C@@H]1CCCCN1C(=O)C(C)(C)NC(=O)C(C)(C)NC(=O)CNC(=O)CCNC(=O)[C@H](CC(C)C)NC(=O)[C@](C)(CC)NC(=O)[C@](C)(CC)NC(=O)[C@@H]1CCCCN1C(=O)C(C)(C)NC(=O)[C@@H]1CCCCN1C(C)=O)C(=O)N[C@@H](CC(C)C)CN1CCC[N+]2=C1CCC2 (Ac-[Pip][Aib][Pip][Iva][Iva]L[βAla]G[Aib][Aib][Pip][Aib]AL[Iva]-X3)
- IC50 (SNU-398): 0.006 µM

SMILES: CC[C@H]1O[C@@]2(C)[C@H](O)[C@@]1(C)O[C@@H](CC(O)/C=C/C=C/c1oc(=O)cc(OC)c1C)[C@@H]2O (stereo partly specified)
- IC50 (SW480): > 40 µM
- IC50 (A549): > 40 µM
- IC50 (SMMC-7721): > 40 µM
- IC50 (HL-60): > 40 µM
- IC50 (MCF7): > 40 µM

SMILES: CC[C@H]1O[C@@]2(C)[C@H](OC(C)=O)[C@@]1(C)O[C@@H](CC(O)/C=C/C=C/c1oc(=O)cc(OC)c1C)[C@@H]2O (stereo partly specified)
- IC50 (SW480): > 40 µM
- IC50 (A549): > 40 µM
- IC50 (SMMC-7721): > 40 µM
- IC50 (HL-60): > 40 µM
- IC50 (MCF7): > 40 µM

SMILES: CC[C@H]1O[C@@]2(C)[C@H](OC(C)=O)[C@@]1(C)O[C@@H](C(O)/C=C/C(/C=C/c1oc(=O)cc(OC)c1C)OC)[C@@H]2O (stereo partly specified)
- IC50 (SW480): > 40 µM
- IC50 (A549): > 40 µM
- IC50 (SMMC-7721): > 40 µM
- IC50 (HL-60): > 40 µM
- IC50 (MCF7): > 40 µM

SMILES: COC[C@@H](C[C@H]1O[C@@](O)([C@H](O)[C@@H]2C[C@H](OC)[C@@H](O)CC/C=C(C)/C=C/[C@@H](O[C@@H]3O[C@@H](C)[C@H](OC)[C@@H](O)[C@@H]3O)[C@H](C)/C=C/C=C(C)/C=C(\C)C(=O)O2)[C@H](C)[C@@H](O)[C@H]1C)O[C@H]1C[C@](C)(O)[C@@H](O[C@H]2C[C@@H](OC)[C@H](O)[C@@H](C)O2)[C@H](C)O1
- IC50 (NCI-H292): 0.11 µM

SMILES: CC[C@H]1O[C@@]2(C)[C@H](OCCC(=O)O)[C@@]1(C)O[C@@H](/C=C/C=C/C=C/c1oc(=O)cc(OC)c1C)[C@@H]2O
- IC50 (SW480): > 40 µM
- IC50 (A549): > 40 µM
- IC50 (SMMC-7721): > 40 µM
- IC50 (HL-60): > 40 µM
- IC50 (MCF7): > 40 µM

SMILES: COC[C@@H](C[C@H]1O[C@@](O)(C[C@@H]2C[C@H](OC)CCC/C=C(C)/C=C/[C@@H](O[C@@H]3O[C@@H](C)[C@H](OC)[C@@H](O)[C@@H]3O)[C@H](C)/C=C(C)/C=C(C)/C=C(\C)C(=O)O2)[C@H](C)[C@@H](O)[C@H]1C)O[C@H]1C[C@](C)(O)[C@@H](O[C@H]2C[C@@H](OC)[C@H](O)[C@@H](C)O2)[C@H](C)O1
- IC50 (NCI-H292): 0.024 µM

SMILES: CC(=O)Oc1cc(/C=C/c2ccc(OCCCC[P+](c3ccccc3)(c3ccccc3)c3ccccc3)cc2)cc(OC(C)=O)c1
- inhibition (Bos taurus): > 40%

SMILES: CC[C@H]1O[C@@]2(C)[C@H](OC(C)=O)[C@@]1(C)O[C@@H](C(O)C(O)/C=C/C=C/c1oc(=O)cc(OC)c1C)[C@@H]2O (stereo partly specified)
- IC50 (SW480): > 40 µM
- IC50 (A549): > 40 µM
- IC50 (SMMC-7721): > 40 µM
- IC50 (HL-60): > 40 µM
- IC50 (MCF7): > 40 µM

SMILES: CC[C@H]1O[C@@]2(C)[C@H](OC(C)=O)[C@@]1(C)O[C@@H](/C=C/C=C/C=O)[C@@H]2O
- IC50 (SW480): > 40 µM
- IC50 (A549): > 40 µM
- IC50 (SMMC-7721): > 40 µM
- IC50 (HL-60): > 40 µM
- IC50 (MCF7): > 40 µM

SMILES: COc1cc(/C=C/c2ccc(OCCCC[P+](c3ccccc3)(c3ccccc3)c3ccccc3)cc2)cc(OC)c1
- inhibition (Bos taurus): > 40%
